Measured values reported in patent US12241902B2, “Probes for detection of copper” (The Regents of the University of California, priority 2019, dated 2025).

What was measured:
[1] = Metal ion selectivity of the ratiometric fluorescence change
Protocol: (§1) (A) Changes in corrected emission spectra of FCP-1 (5 μM) in aqueous buffer solution. […] (B) Corrected emission spectra of FCP-1 measured at various concentrations. […] (D) Changes in F526/F576 ratio of FCP-1 (5 μM) towards various biologically relevant metal ions, as well as cobalt(II)-containing vitamin B12. Black bars represent the ratiometric emission response observed upon addition of competing metal ions (1 mM for Na^+, K^+, Mg^2+ and Ca^2+, and 10 μM for all the other d-block metal ions as well vitamin B12) after 15 min. Red bars represent the ratiometric emission response upon subsequent addition of 10 μM of Cu(I) after 15 min. (E) Emission spectra and (F) F526/F576 emission ratio of FCP-1 (5 μM) with addition of Cu(II) (10 μM), Cu(II) (10 μM)+GSH (2 mM), or Cu(I) (10 μM)+GSH (2 mM) after 15 min. All spectra were acquired in aqueous buffer (PBS with 2 mM GSH and 40 vol % PEG-400) with λex=458 nm.
UV-vis absorption and emission measurements. FCP-1 stock solution in DMSO (5 mM) was prepared, aliquoted and stored at […]. For each spectroscopic measurement, a fresh aliquot was diluted to 500 μM by DMSO and further diluted with PBS containing 2 mM GSH/PEG-400 mixture (3:2, v/v) to prepare the sensing solution with 5 μM of FCP-1. The sensing solution was pre-incubated in a water bath at 37° C., and then [Cu(CH3CN)](PF6) in MeCN or other metal ions in H2O was added. The solution mixture was kept at 37° C. and taken out for UV-vis absorption or emission spectroscopic measurements in quartz cuvette at predetermined time intervals. Emission spectra were corrected using coumarin 153 as secondary emission standard (4). Photoluminescence quantum yield (PLQY) was determined using fluorescein in 0.1 M NaOH solution (0.95; λex=496 nm). FRET efficiency from the fluorescein moiety to rhodamine moiety of FCP-1 was estimated by [1−(PLQY of FCP-1/PLQY of FL-TPA)].
This oxidation state-specificity is important for the applications of FCP-1 in imaging dynamic changes in intracellular labile Cu(I) pools under redox stress and oncogenic transformation.

[2] = test system: labile Cu(I) in Ctr1^+/+ MEFs; assay: Confocal fluorescence imaging of labile Cu(I) in Ctr1+/+ MEFs; assay type: cell-based, mouse
Protocol: (§2) (A) Confocal fluorescence microscopy images of Ctr1^+/+ MEFs and Ctr1^−/− MEFs treated with solvent control, CuCl2 (100 or 300 μM) or BCS (500 μM) in complete medium for 8 h, washed with complete medium and PBS, incubated with FCP-1 (5 μM) in DPBS for 45 min, and then imaged with λex=458 nm. (B) Average cellular ratiometric emission ratios of FCP-1, Fgreen/Forange, as determined from experiments performed in triplicate. (C) Total cellular ^63Cu levels were determined by ICP-MS experiments (with normalization of different cell numbers by total cellular ^31P level). (D) Confocal fluorescence microscopy images of Ctr1^+/+ MEFs and Ctr1^−/− MEFs incubated with FL-TPA (5 μM) in DPBS for 45 min. The cells were then imaged with λex=488 nm. (E) Average cellular fluorescence intensity of FL-TPA, FFL-TPA, determined from experiments performed in triplicate with λex=488 nm. Error bars denote SD (n=3). *p<0.05, **p<0.01 and ***p<0.001.
(§3) Cell culture. Following cell cultures were grown: Human embryonic kidney (HEK 293T) cells were maintained in Dulbecco's Modified Eagle Medium (DMEM) supplemented with 10 vol % fetal bovine serum (FBS), 1 vol % GlutaMax (Gibco) and 1 vol % non-essential amino acids (NEAA, Gibco). Ctrl1^+/+ and Ctr1^−/− MEF cells were maintained in DMEM with 10 vol % FBS, 1 vol % non-essential amino acids, 1 vol % sodium pyruvate and 0.1 vol % 2-mercaptoethanol or DMEM supplemented with 10 vol % FBS and 1× Penicillin-Streptomycin. Human cervical epithelial carcinoma (HeLa) was maintained in DMEM medium supplemented with 1 vol % GlutaMAX and 10 vol % FBS. All cells were incubated in 5% CO2 humidified air and subcultured at 80% confluence.
Confocal fluorescence microscopy imaging. For confocal fluorescence imaging experiments of HEK293T, MEF Ctr1^+/+ and Ctr1^−/− and HeLa cells, the cells were plated on 8-well Lab Tek borosilicate chambered coverglass slides (Nunc), and allowed to grow to ca. 60% confluency before performing the cell imaging experiments. The confocal imaging was performed with a Zeiss laser scanning microscope 710 with 20× or 63× oil-immersion objective lens using Zen 2009 software (Carl Zeiss). FCP-1 was excited with 458 nm with an Ar laser, and the emissions were collected using a META detector between 465 and 541 nm (Fgreen), and between 559 and 710 nm (Forange). DRAQ-5 was excited with a 633 nm He Ne laser, and its emission was collected using a META detector between 661 and 759 nm. Image analysis was performed using ImageJ, with ratiometric images generated by the Ratio Plus plugin of ImageJ. For quantification, a threshold value was set as background and the average intensity of the whole image was measured by ImageJ. All experiments were performed in triplicate, and statistical analyses were performed with a two-tailed Student's t-test (MS excel).
Having established that FCP-1 is sensitive to endogenous pools of labile Cu(I) under basal conditions and can respond to changes in labile Cu(I) pools upon pharmacological copper supplementation and/or depletion, the application of FCP-1 to visualize alterations in endogenous labile Cu(I) pools through genetic manipulation was explored. To this end, comparative FCP-1 imaging was performed in mouse embryonic fibroblast cells that are either Cu-replete (Ctr1^+/+ MEFs) or Cu-deficient (Ctr1^−/− MEFs) through knockout of the high-affinity copper transporter CTR1 (64-66).
Complementary ICP-MS measurements confirm that total copper levels in Ctr1^−/− MEFs are lower than Ctr1^+/+ MEFs (FIG. 12C). […]

[3] = test system: labile Cu(I) in Ctr1^−/− MEFs; assay: Confocal fluorescence imaging of labile Cu(I) in Ctr1-/- MEFs; assay type: cell-based, mouse
Protocol: as §2
as §3, with “All cells were incubated in 5% CO2 humidified air and subcultured at 80% confluence.” left out
Confocal fluorescence microscopy imaging. For confocal fluorescence imaging experiments of HEK293T, MEF Ctr1^+/+ and Ctr1^−/− and HeLa cells, the cells were plated on 8-well Lab Tek borosilicate chambered coverglass slides (Nunc), and allowed to grow to ca. 60% confluency before performing the cell imaging experiments. […] For quantification, a threshold value was set as background and the average intensity of the whole image was measured by ImageJ. […]

[4] = Oxidation state specificity of the ratiometric response
Protocol: as §1
UV-vis absorption and emission measurements. FCP-1 stock solution in DMSO (5 mM) was prepared, aliquoted and stored at […]. For each spectroscopic measurement, a fresh aliquot was diluted to 500 μM by DMSO and further diluted with PBS containing 2 mM GSH/PEG-400 mixture (3:2, v/v) to prepare the sensing solution with 5 μM of FCP-1. […] Photoluminescence quantum yield (PLQY) was determined using fluorescein in 0.1 M NaOH solution (0.95; λex=496 nm). […]

## CC[N+](CC)=c1ccc2c(-c3ccccc3C(=O)O)c3ccc(N4CCN(Cc5cccc(CN(Cc6ccccn6)Cc6cccc(COc7ccc8c(-c9ccccc9C(=O)OC)c9ccc(=O)cc-9oc8c7)n6)n5)CC4)cc3oc-2c1 [FCP-1]
[1]; 10 μM cobalamin
  change in ratiometric signal with cobalamin (vitamin B12): no significant changes in ratiometric signal
[1]; 1 mM Na+, K+, Mg2+, Ca2+, 10 μM d-block metal ions, 15 min
  selectivity of ratiometric fluorescence change: selective toward Cu(I) over other biologically relevant metal ions
[1]; Co(II) 10 μM
  change of fluorescence with free Co(II): altered FCP-1 fluorescence modestly
[1]; solutions containing other biologically relevant metal ions, then 10 μM Cu(I)
  detection of Cu(I) in competitive experiments: ability of FCP-1 to detect Cu(I)
[2]; Ctr1+/+ MEFs (FIG. 13)
  cellular viability by nuclear stain DRAQ5: cellular viability was maintained
[2]; Ctr1+/+ MEFs, BCS
  Fgreen/Forange ratio after BCS: reduction in Fgreen/Forange ratio
[2]; Ctr1+/+ MEFs, varying concentrations of CuCl2
  Fgreen/Forange ratio after CuCl2: dose-dependent increase
[2]; basal, FCP-1 5 μM, p<0.01
  Fgreen/Forange ratio, Ctr1+/+ MEFs compared to Ctr1−/− MEFs: higher Fgreen/Forange ratios
[3]; Ctr1−/− MEFs (FIG. 14)
  cellular viability by nuclear stain DRAQ5: cellular viability was maintained
[3]; Ctr1−/− MEFs incubated with CuCl2
  Fgreen/Forange ratio after CuCl2: no statistically significant changes
[3]; Ctr1−/− MEFs, BCS (500 μM)
  Fgreen/Forange ratio after BCS: reduction in Fgreen/Forange ratio
[4]; Cu(II) 10 μM + GSH 2 mM, compared with Cu(I) 10 μM + GSH 2 mM
  emission spectra and F526/F576 ratio with Cu(II) and excess glutathione: identical to that obtained by treating FCP-1 with Cu(I) and excess glutathione
[4]; Cu(II) 10 μM, 15 min
  ratiometric response to Cu(II): does not respond ratiometrically
